Measurements published in ChEMBL document CHEMBL4346705, “(±)-trans-Dihydronarciclasine and (±)-trans-dihydrolycoricidine analogues modified in their ring A: Evaluation of their anticancer activity and a SAR study” (2019).

Columns and labels:
Assay type in all cases: functional
CAKI-1 = assay: Antiproliferative activity against human Caki1 cells assessed as cell viability at 10^-5 M incubated for 48 hrs by sulforhodamine B assay relative to control; conditions: CAKI-1, 48 h, read-out: Activity
786-0 = assay: Antiproliferative activity against human 786-0 cells assessed as cell viability at 10^-5 M incubated for 48 hrs by sulforhodamine B assay relative to control; conditions: 786-0, 48 h, read-out: Activity
UO-31 = assay: Antiproliferative activity against human UO31 cells assessed as cell viability at 10^-5 M incubated for 48 hrs by sulforhodamine B assay relative to control; conditions: UO-31, 48 h, read-out: Activity
OVCAR-4 = assay: Antiproliferative activity against human OVCAR4 cells assessed as cell viability at 10^-5 M incubated for 48 hrs by sulforhodamine B assay relative to control; conditions: OVCAR-4, 48 h, read-out: Activity
SK-MEL-5 = assay: Antiproliferative activity against human SK-MEL-5 cells assessed as cell viability at 10^-5 M incubated for 48 hrs by sulforhodamine B assay relative to control; conditions: SK-MEL-5, 48 h, read-out: Activity
MCF7 = assay: Antiproliferative activity against human MCF7 cells assessed as cell viability at 10^-5 M incubated for 48 hrs by sulforhodamine B assay relative to control; conditions: MCF7, 48 h, read-out: Activity
OVCAR-8 = assay: Antiproliferative activity against human OVCAR8 cells assessed as cell viability at 10^-5 M incubated for 48 hrs by sulforhodamine B assay relative to control; conditions: OVCAR-8, 48 h, read-out: Activity
MDA-MB-231 = assay: Antiproliferative activity against human MDA-MB-231 cells assessed as cell viability at 10^-5 M incubated for 48 hrs by sulforhodamine B assay relative to control; conditions: MDA-MB-231, 48 h, read-out: Activity
NCI-H522 = assay: Antiproliferative activity against human NCI-H522 cells assessed as cell viability at 10^-5 M incubated for 48 hrs by sulforhodamine B assay relative to control; conditions: NCI-H522, 48 h, read-out: Activity
EKVX = assay: Antiproliferative activity against human EKVX cells assessed as cell viability at 10^-5 M incubated for 48 hrs by sulforhodamine B assay relative to control; conditions: read-out: Activity
SK-MEL-2 = assay: Antiproliferative activity against human SK-MEL-2 cells assessed as cell viability at 10^-5 M incubated for 48 hrs by sulforhodamine B assay relative to control; conditions: SK-MEL-2, 48 h, read-out: Activity
SF-295 = assay: Antiproliferative activity against human SF295 cells assessed as cell viability at 10^-5 M incubated for 48 hrs by sulforhodamine B assay relative to control; conditions: SF-295, 48 h, read-out: Activity
LOX IMVI = assay: Antiproliferative activity against human LOXIMVI cells assessed as cell viability at 10^-5 M incubated for 48 hrs by sulforhodamine B assay relative to control; conditions: read-out: Activity
K562 = assay: Antiproliferative activity against human K562 cells assessed as cell viability at 10^-5 M incubated for 48 hrs by sulforhodamine B assay relative to control; conditions: K562, 48 h, read-out: Activity
HOP-92 = assay: Antiproliferative activity against human HOP92 cells assessed as cell viability at 10^-5 M incubated for 48 hrs by sulforhodamine B assay relative to control; conditions: HOP-92, 48 h, read-out: Activity
Hs-578T = assay: Antiproliferative activity against human Hs 578T cells assessed as cell viability at 10^-5 M incubated for 48 hrs by sulforhodamine B assay relative to control; conditions: read-out: Activity
ACHN = assay: Antiproliferative activity against human ACHN cells assessed as cell viability at 10^-5 M incubated for 48 hrs by sulforhodamine B assay relative to control; conditions: read-out: Activity
IGROV-1 = assay: Antiproliferative activity against human IGROV1 cells assessed as cell viability at 10^-5 M incubated for 48 hrs by sulforhodamine B assay relative to control; conditions: IGROV-1, 48 h, read-out: Activity
SF-539 = assay: Antiproliferative activity against human SF539 cells assessed as cell viability at 10^-5 M incubated for 48 hrs by sulforhodamine B assay relative to control; conditions: SF-539, 48 h, read-out: Activity
TK-10 = assay: Antiproliferative activity against human TK10 cells assessed as cell viability at 10^-5 M incubated for 48 hrs by sulforhodamine B assay relative to control; conditions: TK-10, 48 h, read-out: Activity
UACC-257 = assay: Antiproliferative activity against human UACC257 cells assessed as cell viability at 10^-5 M incubated for 48 hrs by sulforhodamine B assay relative to control; conditions: UACC-257, 48 h, read-out: Activity
T47D = assay: Antiproliferative activity against human T47D cells assessed as cell viability at 10^-5 M incubated for 48 hrs by sulforhodamine B assay relative to control; conditions: read-out: Activity
HT-29 = assay: Antiproliferative activity against human HT-29 cells assessed as cell viability at 10^-5 M incubated for 48 hrs by sulforhodamine B assay relative to control; conditions: HT-29, 48 h, read-out: Activity
SR = assay: Antiproliferative activity against human SR cells assessed as cell viability at 10^-5 M incubated for 48 hrs by sulforhodamine B assay relative to control; conditions: read-out: Activity
U-251 = assay: Antiproliferative activity against human U251 cells assessed as cell viability at 10^-5 M incubated for 48 hrs by sulforhodamine B assay relative to control; conditions: U-251, 48 h, read-out: Activity
CCRF-CEM = assay: Antiproliferative activity against human CCRF-CEM cells assessed as cell viability at 10^-5 M incubated for 48 hrs by sulforhodamine B assay relative to control; conditions: read-out: Activity
NCI-H23 = assay: Antiproliferative activity against human NCI-H23 cells assessed as cell viability at 10^-5 M incubated for 48 hrs by sulforhodamine B assay relative to control; conditions: NCI-H23, 48 h, read-out: Activity
RPMI-8226 = assay: Antiproliferative activity against human RPMI8226 cells assessed as cell viability at 10^-5 M incubated for 48 hrs by sulforhodamine B assay relative to control; conditions: RPMI-8226, 48 h, read-out: Activity
NCI-H226 = assay: Antiproliferative activity against human NCI-H226 cells assessed as cell viability at 10^-5 M incubated for 48 hrs by sulforhodamine B assay relative to control; conditions: NCI-H226, 48 h, read-out: Activity
NCI-H322M = assay: Antiproliferative activity against human NCI-H322M cells assessed as cell viability at 10^-5 M incubated for 48 hrs by sulforhodamine B assay relative to control; conditions: read-out: Activity
SN12C = assay: Antiproliferative activity against human SN12C cells assessed as cell viability at 10^-5 M incubated for 48 hrs by sulforhodamine B assay relative to control; conditions: read-out: Activity
HCT-116 = assay: Antiproliferative activity against human HCT116 cells assessed as cell viability at 10^-5 M incubated for 48 hrs by sulforhodamine B assay relative to control; conditions: HCT-116, 48 h, read-out: Activity

SMILES | viability at 10 µM (CAKI-1) | viability at 10 µM (786-0) | viability at 10 µM (UO-31) | viability at 10 µM (OVCAR-4) | viability at 10 µM (SK-MEL-5) | viability at 10 µM (MCF7) | viability at 10 µM (OVCAR-8) | viability at 10 µM (MDA-MB-231) | viability at 10 µM (NCI-H522) | viability at 10 µM (EKVX) | viability at 10 µM (SK-MEL-2) | viability at 10 µM (SF-295) | viability at 10 µM (LOX IMVI) | viability at 10 µM (K562) | viability at 10 µM (HOP-92) | viability at 10 µM (Hs-578T) | viability at 10 µM (ACHN) | viability at 10 µM (IGROV-1) | viability at 10 µM (SF-539) | viability at 10 µM (TK-10) | other results
O=C1NC2C(CC(O)C(O)C2O)c2cc3c(c(O)c21)OCO3 (racemic) | -7.77% | -10.8% | -31% | -23.7% | -72.7% | 1.73% | -7.71% | -27.9% | -32.6% | -26.3% | -63.6% | -11.5% | -48.8% | 1.86% | -19% | -14.2% | -45.5% | -7.85% | -29.7% | -12.6% | viability at 10 µM (UACC-257): -21.8%; viability at 10 µM (T47D): -8.46%; viability at 10 µM (HT-29): -14.9%; viability at 10 µM (SR): 6.14%; viability at 10 µM (U-251): -10.5%; viability at 10 µM (CCRF-CEM): 2.84%; viability at 10 µM (NCI-H23): -14.9%; viability at 10 µM (RPMI-8226): -24.2%; viability at 10 µM (NCI-H226): -38.3%; viability at 10 µM (NCI-H322M): -14.7%; viability at 10 µM (SN12C): -18.4%; viability at 10 µM (HCT-116): -1.49%
O=C1NC2C(CC(O)C(O)C2O)c2cc3c(c(O)c21)OCCO3 (racemic) | 4.9% | -1.5% | -19.7% | -8.78% | -52.1% | -13.3% | -13.8% | -24.1% | -36.1% | -14.3% | -48.7% | -14.9% | -41.1% | 1.56% | -20.1% | -9.44% | -14.5% | -16.7% | -24.1% | -11.9% | viability at 10 µM (UACC-257): -22.2%; viability at 10 µM (T47D): -15.8%; viability at 10 µM (HT-29): -14.5%; viability at 10 µM (SR): -2.37%; viability at 10 µM (U-251): -14.9%; viability at 10 µM (CCRF-CEM): -6.07%; viability at 10 µM (NCI-H23): -40.9%; viability at 10 µM (RPMI-8226): -28.1%; viability at 10 µM (NCI-H226): -11.3%; viability at 10 µM (NCI-H322M): -24.3%; viability at 10 µM (SN12C): -9.95%; viability at 10 µM (HCT-116): -3.3%
COc1c2c(cc3c1C(=O)NC1C3CC(O)C(O)C1O)OCCO2 (racemic) | 94% | 97.4% | 86.4% | 105% | 99% | 93.9% | 100% | 109% | 93.5% | 98.2% | 100% | 99.6% | 101% | 95.6% | 91.6% | 96.2% | 103% | 109% | 106% | 95.7% | viability at 10 µM (UACC-257): 98.8%; viability at 10 µM (T47D): 84.9%; viability at 10 µM (HT-29): 106%; viability at 10 µM (SR): 92.1%; viability at 10 µM (U-251): 100%; viability at 10 µM (CCRF-CEM): 105%; viability at 10 µM (NCI-H23): 104%; viability at 10 µM (RPMI-8226): 102%; viability at 10 µM (NCI-H226): 92.7%; viability at 10 µM (NCI-H322M): 93.5%; viability at 10 µM (SN12C): 103%; viability at 10 µM (HCT-116): 102%
O=C1NC2C(CC(O)C(O)C2O)c2cc3c(cc21)OCCO3 (racemic) | 94.4% | 102% | 93.2% | 107% | 102% | 98.6% | 107% | 109% | 101% | 97.4% | 109% | 101% | 97.8% | 104% | 101% | 96.9% | 105% | 103% | 101% | 103% | viability at 10 µM (UACC-257): 107%; viability at 10 µM (T47D): 104%; viability at 10 µM (HT-29): 105%; viability at 10 µM (SR): 107%; viability at 10 µM (U-251): 101%; viability at 10 µM (CCRF-CEM): 106%; viability at 10 µM (NCI-H23): 107%; viability at 10 µM (RPMI-8226): 107%; viability at 10 µM (NCI-H226): 97.7%; viability at 10 µM (NCI-H322M): 104%; viability at 10 µM (SN12C): 105%; viability at 10 µM (HCT-116): 95.5%
